Laboratory results as given in patent US6642392B1 (priority 1997, dated 2003).
Read-outs that look alike come from different tables or passages of the source.

Columns and labels:
Type in all cases: in vivo
[1] = system: Phytophthora infestans; conditions: tomato late blight
[2] = system: Puccinia recondita; test: Test B: wheat leaf rust, preventive spray on wheat seedlings; conditions: wheat leaf rust
Summary of the method: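 Preventive test: P. recondita spores were applied one day after a run-off spray of compound suspension on wheat seedlings. Plants had 24 h at 20 °C in saturated air plus 6 days in a 20 °C growth chamber. Scoring is % disease control (100 = full) relative to controls.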

[3] = system: Pyricularia oryzae; conditions: rice blast
[4] = system: Botrytis cinerea; test: Test E: gray mold, preventive spray on cucumber seedlings; conditions: gray mold on cucumber
Summary of the method: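 Preventive spray on cucumber seedlings used a suspension (3% acetone, 250 ppm Trem 014), applied to run-off one day before inoculation with Botrytis cinerea spores. Plants were held 48 h at 20° C in saturated air, then 5 days at 20° C. Percent disease control was scored relative to untreated plants.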

[5] = system: Eiysiphe graminis f. sp. tritici; test: Test A: wheat powdery mildew, preventive spray on wheat seedlings; conditions: wheat powdery mildew
Summary of the method: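 Preventive test: seedlings inoculated with powdery mildew spores one day after run-off spraying of a suspension. Ratings after 7 days in a 20° C growth chamber express percent disease control versus controls.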

[6] = 100 = 100% disease control, 0 = no control, unmarked entries (standard test concentration)
[7] = 100 = 100% disease control, 0 = no control relative to controls, unmarked entries (standard test concentration)

SMILES: Cc1c(Br)cc(C#N)n1CCC(C)NC(=O)C(C#N)C(C)C(C)(C)C (mixture of isomers) [compound 73]
- Test D disease control rating [1, 6]: 0%
- Test B disease control rating [2, 6]: 28%
- Test C disease control rating [3, 6]: 53%
- Test E disease control rating [4, 6]: 11%
- Test A disease control rating [5, 7]: 30%

SMILES: CC(CCn1cc(Cl)cc1C#N)NC(=O)C(C#N)C(C)C(C)(C)C (mixture of isomers) [compound 74]
- Test D disease control rating [1, 6]: 23%
- Test B disease control rating [2, 6]: 86%
- Test C disease control rating [3, 6]: 53%
- Test E disease control rating [4, 6]: 0%
- Test A disease control rating [5, 7]: 0%

SMILES: CC(C(C#N)C(=O)NCC=Cc1ccccc1F)C(C)(C)C (mixture of isomers) [compound 75]
- Test D disease control rating ([1]; tested at 40 ppm): 19%
- Test B disease control rating ([2]; tested at 40 ppm): 0%
- Test C disease control rating ([3]; tested at 40 ppm): 52%
- Test E disease control rating ([4]; tested at 40 ppm): 0%
- Test A disease control rating ([5]; tested at 40 ppm): 0%

SMILES: CC(C(C#N)C(=O)NCC=Cc1cccc(Br)c1)C(C)(C)C (mixture of isomers) [compound 76]
- Test D disease control rating ([1]; tested at 40 ppm): 19%
- Test B disease control rating ([2]; tested at 40 ppm): 0%
- Test C disease control rating ([3]; tested at 40 ppm): 0%
- Test E disease control rating ([4]; tested at 40 ppm): 0%
- Test A disease control rating ([5]; tested at 40 ppm): 0%

SMILES: CCC1(C(=O)NC(C)COc2cccc(I)c2)C(C)C1(Cl)Cl (mixture of isomers) [compound 88]
- Test D disease control rating ([1]; tested at 40 ppm): 0%
- Test B disease control rating ([2]; tested at 40 ppm): 0%
- Test C disease control rating ([3]; tested at 40 ppm): 0%
- Test E disease control rating ([4]; tested at 40 ppm): 0%
- Test A disease control rating ([5]; tested at 40 ppm): 52%

SMILES: CCC1(C(=O)NC(C)COc2ccccc2OC(F)(F)C(F)F)C(C)C1(Cl)Cl (mixture of isomers) [compound 90]
- Test D disease control rating [1, 6]: 0%
- Test B disease control rating [2, 6]: 0%
- Test C disease control rating [3, 6]: 32%
- Test E disease control rating [4, 6]: 0%
- Test A disease control rating [5, 7]: 84%

SMILES: CCC1(C(=O)NC(C)COc2ccccc2SC(F)(F)C(F)F)C(C)C1(Cl)Cl (mixture of isomers) [compound 91]
- Test D disease control rating [1, 6]: 0%
- Test B disease control rating [2, 6]: 0%
- Test C disease control rating [3, 6]: 53%
- Test E disease control rating [4, 6]: 0%
- Test A disease control rating [5, 7]: 74%

SMILES: CCC1(C(=O)NC(C)COc2ccccc2CF)C(C)C1(Cl)Cl (mixture of isomers) [compound 92]
- Test D disease control rating ([1]; tested at 40 ppm): 0%
- Test B disease control rating ([2]; tested at 40 ppm): 0%
- Test C disease control rating ([3]; tested at 40 ppm): 0%
- Test E disease control rating ([4]; tested at 40 ppm): 0%
- Test A disease control rating ([5]; tested at 40 ppm): 60%

SMILES: CCC1(C(=O)NC(C)COc2cccc(CF)c2)C(C)C1(Cl)Cl (mixture of isomers) [compound 93]
- Test D disease control rating ([1]; tested at 40 ppm): 19%
- Test B disease control rating ([2]; tested at 40 ppm): 0%
- Test C disease control rating ([3]; tested at 40 ppm): 85%
- Test E disease control rating ([4]; tested at 40 ppm): 0%
- Test A disease control rating ([5]; tested at 40 ppm): 57%

SMILES: CCC1(C(=O)NC(C)COc2ccccc2C)C(C)C1(Cl)Cl (mixture of isomers) [compound 95]
- Test D disease control rating ([1]; tested at 40 ppm): 0%
- Test B disease control rating ([2]; tested at 40 ppm): 86%
- Test C disease control rating ([3]; tested at 40 ppm): 94%
- Test E disease control rating ([4]; tested at 40 ppm): 0%
- Test A disease control rating ([5]; tested at 40 ppm): 52%

SMILES: CCC1(C(=O)NC(C)COc2cccc(C)c2)C(C)C1(Cl)Cl (mixture of isomers) [compound 96]
- Test D disease control rating ([1]; tested at 40 ppm): 90%
- Test B disease control rating ([2]; tested at 40 ppm): 0%
- Test C disease control rating ([3]; tested at 40 ppm): 0%
- Test E disease control rating ([4]; tested at 40 ppm): 0%
- Test A disease control rating ([5]; tested at 40 ppm): 0%

SMILES: CCC1(C(=O)NC(C)COc2cccc(CF)c2)C(C)C1(Cl)Cl (mixture of isomers) [compound 102]
- Test D disease control rating ([1]; tested at 40 ppm): 0%
- Test B disease control rating ([2]; tested at 40 ppm): 0%
- Test C disease control rating ([3]; tested at 40 ppm): 0%
- Test E disease control rating ([4]; tested at 40 ppm): 0%
- Test A disease control rating ([5]; tested at 40 ppm): 60%

SMILES: CCC1(C(=O)NC(C)COc2ccc(Br)cc2F)C(C)C1(Cl)Cl (mixture of isomers) [compound 122]
- Test D disease control rating [1, 6]: 0%
- Test B disease control rating [2, 6]: 0%
- Test C disease control rating [3, 6]: 0%
- Test E disease control rating [4, 6]: 0%
- Test A disease control rating [5, 7]: 0%

SMILES: CCC1(C(=O)NC(C)COc2c(F)cccc2C#N)C(C)C1(Cl)Cl (mixture of isomers) [compound 128]
- Test D disease control rating [1, 6]: 13%
- Test B disease control rating [2, 6]: 0%
- Test C disease control rating [3, 6]: 74%
- Test E disease control rating [4, 6]: 0%
- Test A disease control rating [5, 7]: 86%

SMILES: CCC1(C(=O)NC(C)COc2ccc(F)cc2C#N)C(C)C1(Cl)Cl (mixture of isomers) [compound 129]
- Test D disease control rating [1, 6]: 0%
- Test B disease control rating [2, 6]: 26%
- Test C disease control rating [3, 6]: 74%
- Test E disease control rating [4, 6]: 0%
- Test A disease control rating [5, 7]: 38%

SMILES: CCC1(C(=O)NC(C)COc2cccc(F)c2C#N)C(C)C1(Cl)Cl (mixture of isomers) [compound 130]
- Test D disease control rating [1, 6]: 2%
- Test B disease control rating [2, 6]: 0%
- Test C disease control rating [3, 6]: 32%
- Test E disease control rating [4, 6]: 0%
- Test A disease control rating [5, 7]: 0%

SMILES: CCC1(C(=O)NC(C)COc2cccc(Cl)c2C#N)C(C)C1(Cl)Cl (mixture of isomers) [compound 131]
- Test D disease control rating [1, 6]: 52%
- Test B disease control rating [2, 6]: 0%
- Test C disease control rating [3, 6]: 53%
- Test E disease control rating [4, 6]: 0%
- Test A disease control rating [5, 7]: 0%

SMILES: CCC1(C(=O)NC(C)COc2cccc(I)c2C#N)C(C)C1(Cl)Cl (mixture of isomers) [compound 132]
- Test D disease control rating [1, 6]: 2%
- Test B disease control rating [2, 6]: 0%
- Test C disease control rating [3, 6]: 0%
- Test E disease control rating [4, 6]: 0%
- Test A disease control rating [5, 7]: 0%

SMILES: CCC1(C(=O)NC(C)COc2cccc(C(F)(F)F)c2C#N)C(C)C1(Cl)Cl (mixture of isomers) [compound 133]
- Test D disease control rating [1, 6]: 0%
- Test B disease control rating [2, 6]: 0%
- Test C disease control rating [3, 6]: 0%
- Test E disease control rating [4, 6]: 0%
- Test A disease control rating [5, 7]: 0%

SMILES: CCC1(C(=O)NC(C)COc2c(C#N)cccc2C(F)(F)F)C(C)C1(Cl)Cl (mixture of isomers) [compound 134]
- Test D disease control rating [1, 6]: 30%
- Test B disease control rating [2, 6]: 0%
- Test C disease control rating [3, 6]: 0%
- Test E disease control rating [4, 6]: 0%
- Test A disease control rating [5, 7]: 0%

SMILES: CCC1(C(=O)NC(C)COc2cc(F)cc(F)c2C#N)C(C)C1(Cl)Cl (mixture of isomers) [compound 135]
- Test D disease control rating [1, 6]: 2%
- Test B disease control rating [2, 6]: 0%
- Test C disease control rating [3, 6]: 53%
- Test E disease control rating [4, 6]: 0%
- Test A disease control rating [5, 7]: 0%

SMILES: CCC1(C(=O)NC(C)COn2c(C)cc(C)c2C#N)C(C)C1(Cl)Cl (mixture of isomers) [compound 136]
- Test D disease control rating [1, 6]: 0%
- Test B disease control rating [2, 6]: 0%
- Test C disease control rating [3, 6]: 78%
- Test E disease control rating [4, 6]: 0%
- Test A disease control rating [5, 7]: 34%

SMILES: CCC1(C(=O)NC(C)COn2cc(Br)cc2C#N)C(C)C1(Cl)Cl (mixture of isomers) [compound 137]
- Test D disease control rating [1, 6]: 0%
- Test B disease control rating [2, 6]: 0%
- Test C disease control rating [3, 6]: 53%
- Test E disease control rating [4, 6]: 0%
- Test A disease control rating [5, 7]: 0%

SMILES: CCC1(C(=O)NC(C)COn2cc(Cl)cc2C#N)C(C)C1(Cl)Cl (mixture of isomers) [compound 138]
- Test D disease control rating [1, 6]: 13%
- Test B disease control rating [2, 6]: 0%
- Test C disease control rating [3, 6]: 53%
- Test E disease control rating [4, 6]: 0%
- Test A disease control rating [5, 7]: 0%

SMILES: CCC1(C(=O)NC(C)COn2c(C#N)cc(Cl)c2Cl)C(C)C1(Cl)Cl (mixture of isomers) [compound 139]
- Test D disease control rating [1, 6]: 0%
- Test B disease control rating [2, 6]: 0%
- Test C disease control rating [3, 6]: 91%
- Test E disease control rating [4, 6]: 0%
- Test A disease control rating [5, 7]: 71%

SMILES: CCC1(C(=O)NC(C)COn2c(C#N)cc(Br)c2C)C(C)C1(Cl)Cl (mixture of isomers) [compound 141]
- Test D disease control rating [1, 6]: 84%
- Test B disease control rating [2, 6]: 68%
- Test C disease control rating [3, 6]: 74%
- Test E disease control rating [4, 6]: 0%
- Test A disease control rating [5, 7]: 38%

SMILES: CCC1(C(=O)NC(C)CCn2c(C#N)cc(Br)c2C)C(C)C1(Cl)Cl (mixture of isomers) [compound 143]
- Test D disease control rating [1, 6]: 0%
- Test B disease control rating [2, 6]: 0%
- Test C disease control rating [3, 6]: 53%
- Test E disease control rating [4, 6]: 0%
- Test A disease control rating [5, 7]: 0%

SMILES: CCC1(C(=O)NC(C)CCn2cc(Cl)cc2C#N)C(C)C1(Cl)Cl (mixture of isomers) [compound 144]
- Test D disease control rating [1, 6]: 0%
- Test B disease control rating [2, 6]: 28%
- Test C disease control rating [3, 6]: 53%
- Test E disease control rating [4, 6]: 0%
- Test A disease control rating [5, 7]: 0%

SMILES: CC(COc1c(Cl)cc(Cl)cc1Cl)NC(=O)C(C#N)C(C)(C)C (mixture of isomers) [compound 172]
- Test D disease control rating [1, 6]: 0%
- Test B disease control rating [2, 6]: 0%
- Test C disease control rating [3, 6]: 86%
- Test E disease control rating [4, 6]: 95%
- Test A disease control rating [5, 7]: 0%

SMILES: CC(COc1ccccc1CF)NC(=O)C(C#N)C(C)(C)C (mixture of isomers) [compound 175]
- Test D disease control rating ([1]; tested at 40 ppm): 33%
- Test B disease control rating ([2]; tested at 40 ppm): 0%
- Test C disease control rating ([3]; tested at 40 ppm): 74%
- Test E disease control rating ([4]; tested at 40 ppm): 0%
- Test A disease control rating ([5]; tested at 40 ppm): 0%
